In patent US5436243A, “Aminoanthraquinone derivatives to combat multidrug resistance” (priority 1993, dated 1995):
pIC50: −log10 of the molar value. Entries after “also recorded” stand apart in the source; their conditions may differ.

How the values were obtained:
[1] = tested on: MDR cell lines; settings: literature; cited from earlier work
[2] = tested on: MCF7 Adr 10; assay: 72 hour MTT proliferation assay, reversal of drug resistance in MCF7 Adr 10; assay type: cell-based, human; settings: [1c] 0 μM; for pIC50: Homo sapiens, NCI/ADR-RES
Procedure: (§1) In 72 hour MTT proliferation assays using the following method, compounds 1b, 1c and 1d were assessed for inhibition of Vinca alkaloid and anthracycline drug resistance in MDR MCF7. Additionally, compounds 1b and 1c were assessed for potentiation of sensitivity to Vinca alkaloid and anthracycline drugs in the parental MCF7 WT cell line.
(§2) METHOD: 5000 cells per well were plated in 100 μl of IMDM containing 10% FCS and allowed to adhere overnight. The following day the cells were treated with N-substituted 1,4-diaminoanthraquinones and exposed to graded concentrations of antineoplastic agents. 50 μl of IMDM 10% FCS containing either vehicle or N-substituted 1,4-diaminoanthraquinones at 3 times the final tested concentration was added to cells at timed intervals. The plates were incubated for 2 hours at 37° C. to allow maximal cellular accumulation of N-substituted 1,4-diaminoanthraquinones. 40 μl aliquots of IMDM 10% FCS containing either vehicle or graded concentrations of antineoplastic drugs at 5 times the final concentration were added to treatment groups. Following this addition, 10 μl of IMDM 10% FCS containing either vehicle or N-substituted 1,4-diaminoanthraquinone at 5 times the final concentration was added to each group of wells. The cells were incubated for 72 hours after treatment. At this time the viable cells in each treatment group were estimated in a colorimetric assay by adding MTT and incubating the cells at 37° C. for 3-4 hours. The media in each well was aspirated and MTT formazan was solubilized in isopropyl alcohol acidified with 0.1 N HCl. The absorbance of the solubilized formazan was quantitated using a plate reader spectrophotometer. […] The concentrations of antineoplastic drugs which inhibited proliferation by 50% (IC50's) were estimated by calculating a percentage from the ratio: antineoplastic drug treated groups/control group absorbance and plotting the dose response curve on semilog paper. The IC50 was estimated from this curve. To assess the effects of inhibition of resistance by N-substituted 1,4-diaminoanthraquinones, the percentages were calculated relative to cell groups treated with resistance modifier alone and IC50's calculated as above. A reversal factor was calculated by dividing the IC50 to the antineoplastic drug alone (Control group) by the IC50 to antineoplastic drug in cells treated with resistance modifier.

[3] = tested on: PKC; assay: Micellar PKC screening assay; assay type: biochemical
Source text: The N-substituted diaminoanthraquinone, 1b, (1,4-bis-[[3'-(diethylamino)propyl]amino]anthraquinone), was identified as a PKC inhibitor in the micellar PKC screening assay and in platelets. […] Spectrophotometric analysis of 1b and lc indicated they were excellent chromophores with absorbance maxima at 648 and 600 nm in chloroform, respectively, and extinction coefficients of approximately 20,000. At these wavelengths, there was minimal absorbance by cellular components contained in the chloroform phase. These properties of 1b and 1c were utilized to determine the time course of accumulation of these compounds in MDR MCF7 Adr 10 cells.
The activities of 1a, 1b, 1c and 1d and mitoxantrone, an anthraquinone antineoplastic drug, were evaluated in vinblastine drug accumulation assays performed by the following method. […] Mitoxantrone was identified as a PKC inhibitor in miceliar PKC assays. Compound 1d (1,4-bis-[[2-(4-morpholino)ethyl]amino]anthraquinone) was only evaluated in cellular studies.

[4] = tested on: MCF7 Adr 10 human breast cancer cells; assay: Vinblastine accumulation assay, MCF7 Adr 10; assay type: cell-based; settings: for activity in vinblastine accumulation assay / drug accumulation: MDR MCF7
Procedure: [^3 H] vinblastine ([^3 H] VLB) was added to a final concentration of 100 nM and the cells were incubated for 2.5 hours. At this time, the cells were washed 3 times in ice cold PBS and lysed in buffer containing 0.1% Triton X-100. Net accumulation of [^3 H] vinblastine was expressed as pmol/mg protein. In [^3 H]

[5] = tested on: patients; settings: human, in vivo; cited from earlier work
[6] = tested on: P-glycoprotein; settings: literature; cited from earlier work
[7] = tested on: patients with tumors clinically resistant to adriamycin; settings: cited from earlier work
[8] = tested on: PKC; settings: literature; cited from earlier work
[9] = tested on: MCF7 WT; assay: 72 hour MTT proliferation assay, potentiation of sensitivity in MCF7 WT; assay type: cell-based, human
Procedure: as §1, §2

[10] = tested on: MCF7 WT; assay: Tumor cell clonogenic assay, MCF7 WT; assay type: cell-based, human; settings: Homo sapiens, MCF7, read-out: Continuous Exposure IC50, MCF7 WT
Procedure: The tumor cell clonogenic assays measure clonal proliferation of tumor cells. In this assay, 300-500 cells are plated in 10 cm^2 wells, allowed to adhere overnight, and are treated the following day. Tumor cell colonies were counted after 10-12 days of culture. […] The IC50's are calculated as described above for the MTT proliferation assays.

[11] = tested on: MCF7 Adr 10; assay: Tumor cell clonogenic assay, MCF7 ADR 10; assay type: cell-based, human; settings: Homo sapiens, NCI/ADR-RES, read-out: Continuous Exposure IC50, MCF7 ADR 10
Procedure: The tumor cell clonogenic assays measure clonal proliferation of tumor cells. In this assay, 300-500 cells are plated in 10 cm^2 wells, allowed to adhere overnight, and are treated the following day. Tumor cell colonies were counted after 10-12 days of culture. The times of exposure in these experiments are similar; however, the concentrations of FCS are 20% in the CFU-GM assay and 10% in the tumor cell clonogenic assays. The IC50's are calculated as described above for the MTT proliferation assays.

SMILES: CN(C)CCOc1ccc(/C(=C(/CCCl)c2ccccc2)c2ccccc2)cc1 [toremifene]
- drug accumulation and reversal of resistance in MDR cell lines [1]: can also modulate resistance of estrogen receptor-negative MDR cell lines

SMILES: COc1cccc2c1C(=O)c1c(O)c3c(c(O)c1C2=O)C[C@@](O)(C(C)=O)C[C@@H]3O[C@H]1C[C@H](N)[C@H](O)[C@H](C)O1 [DNR, reference compound]
- pIC50 ([2]; average ± SD of 3 experiments, read-out: DNR IC50): 5.17
- Reversal Factor (DNR) [2]: 1.0

SMILES: CCCCCCCCNc1ccc(NCCCCCCCC)c2c1C(=O)c1ccccc1C2=O [Compound 1a, 1,4-bis-(octylamino) anthraquinone]
- PKC activity in micellar PKC screening assay [3]: PKC stimulation
- activity in vinblastine accumulation assay / drug accumulation [4]: inactive; also recorded: did not show significant activity

SMILES: COc1ccc(CCN(C)CCC[C@](C#N)(c2ccc(OC)c(OC)c2)C(C)C)cc1OC [D-verapamil]
- toxicity in humans [5]: too toxic to use at high concentrations in humans

SMILES: CCCCCCCCCCCCCC(=O)O[C@@H]1[C@@H](C)[C@@]2(O)[C@@H](C=C(CO)C[C@]3(O)C(=O)C(C)=C[C@@H]23)[C@@H]2C(C)(C)[C@]12OC(C)=O [phorbol myristate acetate]
- phosphorylation of the P-glycoprotein [6]: stimulate phosphorylation of the P-glycoprotein

SMILES: CN1CCN(CCCN2c3ccccc3Sc3ccc(C(F)(F)F)cc32)CC1 [trifluoperazine]
- drug accumulation and reversal of resistance in MDR cell lines [1]: increase drug accumulation and decrease resistance in MDR cell lines
- tumor responses ([7]; 36 patients, oral, with constant infusion adriamycin): One complete response and six partial responses
- dose-limiting toxicity ([7]; human, in vivo): Neurotoxicity of trifluoperazine to the extrapyramidal tracts was dose-limiting
- plasma concentrations below those optimal for modulation of chemoresistance in vitro ([7]; human, in vivo): approximately 10 fold
- phosphorylation of the P-glycoprotein [6]: stimulate phosphorylation of the P-glycoprotein
- PKC inhibition in vitro [8]: non-specifically inhibit PKC in vitro

SMILES: O=C1c2ccccc2C(=O)c2c(NCCN3CCOCC3)ccc(NCCN3CCOCC3)c21 [Compound 1d, 1,4-bis-[[2-(4-morpholino)ethyl]amino]anthraquinone]
- minimal effective concentration ([4]; Homo sapiens, NCI/ADR-RES, 100 nM [3H] VLB, 2.5 hours, FIGS. 2 and 3, read-out: lowest concentration which causes a doubling of basal accumulation of vinblastine): 2.5 µM
- activity in vinblastine accumulation assay / drug accumulation [4]: increase vinblastine accumulation in MDR MCF7

SMILES: CC[C@]1(O)C[C@H]2CN(CCc3c([nH]c4ccccc34)[C@@](C(=O)OC)(c3cc4c(cc3OC)N(C=O)[C@H]3[C@@](O)(C(=O)OC)[C@H](OC(C)=O)[C@]5(CC)C=CCN6CC[C@]43[C@@H]65)C2)C1 [VCR, reference compound]
- pIC50 ([2]; average ± SD of 3 experiments, read-out: VCR IC50): 5.48
- Reversal Factor (VCR) [2]: 1.0
- pIC50 ([9]; Homo sapiens, MCF7, read-out: VCR IC50): 8.72
- Reversal Factor (VCR) ([9]; [1c] 0 μM, MCF7 WT): 1.0
- pIC50 [10]: 9.40
- pIC50 [11]: 6.01

SMILES: COc1cccc2c1C(=O)c1c(O)c3c(c(O)c1C2=O)C[C@@](O)(C(=O)CO)C[C@@H]3O[C@H]1C[C@H](N)[C@H](O)[C@H](C)O1 [ADR, reference compound]
- pIC50 ([2]; average ± SD of 4 experiments, read-out: ADR IC50): 4.42
- Reversal Factor (ADR) [2]: 1.0
- pIC50 [10]: 8.25
- pIC50 [11]: 5.47
